Values quoted from earlier work in patent publication US20100111901A1, “TRIAZOLE INHIBITORS OF AROMATASE” (priority 2008, published 2010).

Legend:
CYP2D6 = CYP2D6 (Homo sapiens, UniProt P10635)
[1] = in vivo
CYP1A2 = CYP1A2 (Homo sapiens, UniProt P05177); details: strongest in decreasing order of magnitude
CYP2A6 = CYP2A6 (Homo sapiens, UniProt P11509)
CYP2A6, sequence (P11509 whole entry): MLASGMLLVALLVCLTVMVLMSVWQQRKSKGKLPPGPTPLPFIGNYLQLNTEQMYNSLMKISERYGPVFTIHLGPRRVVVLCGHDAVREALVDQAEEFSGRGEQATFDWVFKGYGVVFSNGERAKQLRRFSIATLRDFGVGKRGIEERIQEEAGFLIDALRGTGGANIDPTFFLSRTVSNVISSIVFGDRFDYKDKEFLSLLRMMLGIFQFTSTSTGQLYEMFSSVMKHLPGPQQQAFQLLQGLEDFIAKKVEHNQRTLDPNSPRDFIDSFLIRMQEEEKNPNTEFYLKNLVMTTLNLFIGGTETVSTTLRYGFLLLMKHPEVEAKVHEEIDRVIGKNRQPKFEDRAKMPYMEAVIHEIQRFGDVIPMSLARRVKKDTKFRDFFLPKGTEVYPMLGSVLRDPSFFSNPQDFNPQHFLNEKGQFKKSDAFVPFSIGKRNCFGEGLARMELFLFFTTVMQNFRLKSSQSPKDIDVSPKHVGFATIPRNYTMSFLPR

CYP1A2, sequence (P05177 whole entry): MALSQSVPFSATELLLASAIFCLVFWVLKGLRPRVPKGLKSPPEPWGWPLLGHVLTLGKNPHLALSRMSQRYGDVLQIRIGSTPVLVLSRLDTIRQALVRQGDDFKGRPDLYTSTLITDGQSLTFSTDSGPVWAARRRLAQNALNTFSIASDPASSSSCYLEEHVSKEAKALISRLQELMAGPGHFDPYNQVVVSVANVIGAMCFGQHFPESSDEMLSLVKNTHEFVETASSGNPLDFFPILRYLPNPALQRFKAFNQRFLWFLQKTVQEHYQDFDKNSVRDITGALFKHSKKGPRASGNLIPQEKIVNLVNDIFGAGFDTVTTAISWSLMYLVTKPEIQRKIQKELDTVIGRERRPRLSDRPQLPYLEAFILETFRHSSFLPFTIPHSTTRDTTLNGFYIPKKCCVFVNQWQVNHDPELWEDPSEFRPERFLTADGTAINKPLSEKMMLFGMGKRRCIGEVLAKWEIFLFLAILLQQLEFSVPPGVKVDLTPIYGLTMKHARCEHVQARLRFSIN
CYP2D6, sequence (P10635 whole entry): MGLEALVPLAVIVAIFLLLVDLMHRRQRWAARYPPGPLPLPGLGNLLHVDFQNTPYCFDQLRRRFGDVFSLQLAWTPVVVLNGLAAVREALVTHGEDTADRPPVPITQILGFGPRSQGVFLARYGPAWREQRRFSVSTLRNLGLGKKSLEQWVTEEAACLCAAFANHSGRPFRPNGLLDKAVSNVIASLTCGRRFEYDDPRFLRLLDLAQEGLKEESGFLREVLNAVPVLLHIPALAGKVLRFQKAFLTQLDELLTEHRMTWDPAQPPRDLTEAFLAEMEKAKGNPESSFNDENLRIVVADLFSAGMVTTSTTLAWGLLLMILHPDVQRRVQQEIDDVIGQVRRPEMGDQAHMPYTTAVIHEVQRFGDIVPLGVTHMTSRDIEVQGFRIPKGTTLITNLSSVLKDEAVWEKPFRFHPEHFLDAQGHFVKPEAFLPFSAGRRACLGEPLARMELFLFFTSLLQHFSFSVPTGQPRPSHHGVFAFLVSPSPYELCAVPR

CC(C)(C#N)c1cc(Cn2cncn2)cc(C(C)(C)C#N)c1 [Anastrozole, 2-[3-(2-cyano-2-propyl)-5-(1,2,4-triazol-1-ylmethyl)phenyl]-2-methylpropiononitrile]
effect on CYP2D6 (CYP2D6): no effect
mean terminal elimination half-life [1]: 40 to 50 h
inhibition of CYP1A2 (CYP1A2): inhibits
effect on CYP2A6 (CYP2A6): no effect
